From patent US20240116912A1, “COMPOUNDS AND METHODS FOR MODULATING FXR” (Terns Pharmaceuticals, Inc., priority 2020, published 2024) come the findings set out here.

Experiment [1] has as its target full length human FXR protein (Homo sapiens (Human), UniProt Q96RI1). As to the kind of experiment: FXR cellular assay (FXR-SRCP β-gal enzyme fragment complementation in CHO-K1 cells, chemiluminescence). The format is cell-based. As to conditions: CHO-K1 cells with SRCP-EA and ProLink-labeled FXR, 0-10 micromolar compound, 37° C. for 6h, read-out: EC50 FXR-cell Luminescence/. The procedure, abridged: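 CHO-K1 cells stably expressing ProLink-tagged full-length FXR and SRCP-EA treated with compound (0-10 micromolar, 1% DMSO) for 6 h at 37 °C. Ligand-driven FXR-coactivator binding reconstitutes β-gal; chemiluminescence read after 1 h detection reagent at room temperature.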

The target in experiment [2] is ligand binding domain (LBD) of recombinant human FXR (Homo sapiens (Human), UniProt Q96RI1). As to the kind of experiment: FXR cell free coactivator (SRC-1) recruitment assay, TR-FRET. The note with it: FXR LBD (amino acids 244-476) with labeled SRC-1 domain, 25° C. for 60 minutes, activity relative to CDCA maximum; read-out: EC50 FXR- Biochemical TR-FRET/μM. The gist of the method:
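Purified SF9-expressed FXR LBD (aa 244-476) was incubated with compounds (0-10 micromolar) and labeled SRC-1 interaction domain in TR-FRET coregulator buffer G, 60 min at 25° C, 1.2% DMSO. Activity at each concentration was taken as percent of maximal CDCA response to build dose-response curves.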

Molecules are shown by their SMILES. “And” between values parts separate entries of the source, which are not always exact repeats. Equal entries are not always repeated. Bounds are passed on as bounds.

ligand binding domain (LBD) of recombinant human FXR, sequence (Q96RI1 254-486): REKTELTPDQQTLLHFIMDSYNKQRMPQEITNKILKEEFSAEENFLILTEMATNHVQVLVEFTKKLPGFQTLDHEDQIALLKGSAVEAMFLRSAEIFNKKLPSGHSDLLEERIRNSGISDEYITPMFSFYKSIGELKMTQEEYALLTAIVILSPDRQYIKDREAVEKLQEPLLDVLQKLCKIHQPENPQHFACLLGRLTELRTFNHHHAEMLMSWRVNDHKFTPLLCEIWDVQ
ligand binding domain (LBD) of recombinant human FXR, sequence (Q15788 whole entry partner, the tested form may be a part): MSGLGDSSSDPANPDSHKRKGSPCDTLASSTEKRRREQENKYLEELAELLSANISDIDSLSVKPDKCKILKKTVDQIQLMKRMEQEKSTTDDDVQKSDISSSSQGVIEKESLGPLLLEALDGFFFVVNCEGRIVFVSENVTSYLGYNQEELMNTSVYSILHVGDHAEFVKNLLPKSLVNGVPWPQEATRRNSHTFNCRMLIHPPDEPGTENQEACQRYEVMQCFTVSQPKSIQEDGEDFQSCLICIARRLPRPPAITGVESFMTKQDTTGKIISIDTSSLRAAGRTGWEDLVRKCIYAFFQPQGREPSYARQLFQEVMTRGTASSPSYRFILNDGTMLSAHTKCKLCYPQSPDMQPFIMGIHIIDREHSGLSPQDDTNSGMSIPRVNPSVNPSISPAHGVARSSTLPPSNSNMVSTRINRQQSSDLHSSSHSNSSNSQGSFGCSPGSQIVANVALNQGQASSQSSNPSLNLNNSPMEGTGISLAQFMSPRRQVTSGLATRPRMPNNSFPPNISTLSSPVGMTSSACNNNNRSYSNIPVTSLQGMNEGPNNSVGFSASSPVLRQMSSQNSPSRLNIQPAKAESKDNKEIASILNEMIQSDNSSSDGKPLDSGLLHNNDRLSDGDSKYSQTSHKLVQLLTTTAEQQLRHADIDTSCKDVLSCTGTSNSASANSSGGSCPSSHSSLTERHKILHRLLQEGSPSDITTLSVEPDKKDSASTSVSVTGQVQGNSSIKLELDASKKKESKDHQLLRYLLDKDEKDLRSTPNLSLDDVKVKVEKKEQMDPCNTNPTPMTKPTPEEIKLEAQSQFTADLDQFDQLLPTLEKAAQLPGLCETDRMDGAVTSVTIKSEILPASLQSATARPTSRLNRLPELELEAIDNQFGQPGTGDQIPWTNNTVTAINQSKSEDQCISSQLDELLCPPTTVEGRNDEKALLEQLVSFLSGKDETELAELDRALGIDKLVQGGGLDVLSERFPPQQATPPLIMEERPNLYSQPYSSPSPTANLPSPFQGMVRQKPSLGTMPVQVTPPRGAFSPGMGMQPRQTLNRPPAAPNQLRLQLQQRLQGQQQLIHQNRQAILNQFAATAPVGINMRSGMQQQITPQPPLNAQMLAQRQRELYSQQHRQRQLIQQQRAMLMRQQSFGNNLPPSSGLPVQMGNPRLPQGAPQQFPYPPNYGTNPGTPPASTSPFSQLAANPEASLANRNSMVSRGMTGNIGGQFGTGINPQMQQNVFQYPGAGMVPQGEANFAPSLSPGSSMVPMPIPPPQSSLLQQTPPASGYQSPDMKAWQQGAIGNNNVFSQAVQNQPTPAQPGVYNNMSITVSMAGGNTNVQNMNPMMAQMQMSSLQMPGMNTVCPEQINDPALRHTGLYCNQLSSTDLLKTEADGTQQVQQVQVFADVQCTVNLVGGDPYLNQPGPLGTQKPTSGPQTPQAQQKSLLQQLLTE
full length human FXR protein, sequence (Q96RI1 whole entry, the tested form may be a part): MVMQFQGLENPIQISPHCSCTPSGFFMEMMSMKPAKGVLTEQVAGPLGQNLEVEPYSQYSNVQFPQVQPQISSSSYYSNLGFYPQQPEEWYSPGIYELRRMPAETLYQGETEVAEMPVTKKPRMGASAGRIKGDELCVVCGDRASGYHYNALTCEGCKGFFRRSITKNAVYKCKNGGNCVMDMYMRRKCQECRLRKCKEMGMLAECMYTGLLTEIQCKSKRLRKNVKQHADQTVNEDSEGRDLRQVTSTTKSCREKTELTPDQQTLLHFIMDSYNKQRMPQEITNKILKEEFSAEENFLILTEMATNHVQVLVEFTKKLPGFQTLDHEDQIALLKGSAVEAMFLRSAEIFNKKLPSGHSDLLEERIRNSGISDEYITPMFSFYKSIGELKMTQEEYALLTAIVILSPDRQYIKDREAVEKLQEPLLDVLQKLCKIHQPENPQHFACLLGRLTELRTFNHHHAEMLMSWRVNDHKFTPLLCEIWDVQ

Take `O=c1[nH]nc(-c2ccc(N3CCC(OCc4c(-c5ccccc5OC(F)(F)F)noc4C4CC4)CC3)cc2)o1` [Example 51, 5-(4-(4-((5-cyclopropyl-3-(2-(trifluoromethoxy)phenyl)isoxazol-4-yl)methoxy)piperidin-1-yl)phenyl)-1,3,4-oxadiazol-2(3H)-one]: the EC50 amounted to 1290 nM in experiment [1] and 0.325 µM in experiment [2].
In the case of `O=c1cc(-c2ccc(N3CCC(OCc4c(-c5ccccc5OC(F)(F)F)noc4C4CC4)CC3)cc2)o[nH]1` [Example 52, 5-(4-(4-((5-cyclopropyl-3-(2-(trifluoromethoxy)phenyl)isoxazol-4-yl)methoxy)piperidin-1-yl)phenyl)isoxazol-3(2H)-one], the EC50 in experiment [1] was determined as 1630 nM; in experiment [2], 0.143 µM.
In the case of `O=c1[nH]c(-c2ccc(N3CCC(OCc4c(-c5c(Cl)cccc5Cl)noc4C4CC4)C(F)(F)C3)cc2)no1` (stereo not drawn) [Example 53, 3-(4-(4-((5-cyclopropyl-3-(2,6-dichlorophenyl)isoxazol-4-yl)methoxy)-3,3-difluoropiperidin-1-yl)phenyl)-1,2,4-oxadiazol-5(4H)-one], the EC50 in experiment [1] stood at 94.3 nM; in experiment [2], 0.009 µM.
Consider `O=c1[nH]c(-c2ccc(N3CCC(OCc4c(-c5ccccc5OC(F)(F)F)noc4C4CC4)C(F)(F)C3)cc2)no1` (stereo not drawn) [Example 54, 3-(4-(4-((5-cyclopropyl-3-(2-(trifluoromethoxy)phenyl)isoxazol-4-yl)methoxy)-3,3-difluoropiperidin-1-yl)phenyl)-1,2,4-oxadiazol-5(4H)-one], for which the EC50 in experiment [1] turned out to be 715 nM; in experiment [2], 0.0376 µM.
`O=c1[nH]c(-c2ccc(N3CCC(OCc4c(-c5c(F)cccc5F)noc4C4CC4)C(F)(F)C3)cc2)no1` (stereo not drawn) [Example 55, 3-(4-(4-((5-cyclopropyl-3-(2,6-difluorophenyl)isoxazol-4-yl)methoxy)-3,3-difluoropiperidin-1-yl)phenyl)-1,2,4-oxadiazol-5(4H)-one]: the EC50 in experiment [1] stood at 852 nM; in experiment [2], 0.174 µM.
As to `O=c1[nH]c(-c2ncc(N3CCC(OCc4c(-c5c(Cl)cccc5Cl)noc4C4CC4)CC3)s2)no1` [Example 56, 3-(5-(4-((5-cyclopropyl-3-(2,6-dichlorophenyl)isoxazol-4-yl)methoxy)piperidin-1-yl)thiazol-2-yl)-1,2,4-oxadiazol-5(4H)-one], the EC50 in experiment [1] was found to be 887 nM; in experiment [2] it was 0.0431 µM.
The like results for `O=c1[nH]nc(-c2ccc(N3CCC(OCc4c(-c5ccccc5OC(F)(F)F)noc4C4CC4)CC3)cc2)c(=O)[nH]1` [Example 57, 6-(4-(4-((5-cyclopropyl-3-(2-(trifluoromethoxy)phenyl)isoxazol-4-yl)methoxy)piperidin-1-yl)phenyl)-1,2,4-triazine-3,5(2H,4H)-dione] were, in that order, 497 nM and 0.0847 µM.
Regarding `O=c1[nH]c(-c2cc(N3CCC(OCc4c(-c5c(Cl)cccc5Cl)noc4C4CC4)CC3)n[nH]2)no1` [Example 58, 3-(3-(4-((5-cyclopropyl-3-(2,6-dichlorophenyl)isoxazol-4-yl)methoxy)piperidin-1-yl)-1H-pyrazol-5-yl)-1,2,4-oxadiazol-5(4H)-one], the EC50 was 11700 nM in experiment [1] and 0.421 µM in experiment [2].
As to `O=c1cc(-c2ccc(N3CCC(OCc4c(-c5c(Cl)cccc5Cl)noc4C4CC4)CC3)nc2)o[nH]1` [Example 59, 5-(6-(4-((5-cyclopropyl-3-(2,6-dichlorophenyl)isoxazol-4-yl)methoxy)piperidin-1-yl)pyridin-3-yl)isoxazol-3(2H)-one], the values for the EC50 in experiment [1] and in experiment [2] were 264 nM and 0.0179 µM, respectively.
For the molecule `O=c1cc(-c2ccc(N3CCC(OCc4c(-c5ccccc5OC(F)(F)F)noc4C4CC4)CC3)nc2)o[nH]1` [Example 60, 5-(6-(4-((5-cyclopropyl-3-(2-(trifluoromethoxy)phenyl)isoxazol-4-yl)methoxy)piperidin-1-yl)pyridin-3-yl)isoxazol-3(2H)-one], the EC50 in experiment [1] stood at 779 nM; in experiment [2], 0.104 µM.
`O=c1[nH]nc(-c2ccc(N3CCC(OCc4c(-c5ccccc5OC(F)(F)F)noc4C4CC4)CC3)nc2)o1` [Example 61, 5-(6-(4-((5-cyclopropyl-3-(2-(trifluoromethoxy)phenyl)isoxazol-4-yl)methoxy)piperidin-1-yl)pyridin-3-yl)-1,3,4-oxadiazol-2(3H)-one]: the EC50 was 1920 nM in experiment [1] and 0.298 µM in experiment [2].
`O=c1cn[nH]c(=O)n1-c1ccc(N2CCC(OCc3c(-c4c(Cl)cccc4Cl)noc3C3CC3)CC2)cc1` [Example 62, 4-(4-(4-((5-cyclopropyl-3-(2,6-dichlorophenyl)isoxazol-4-yl)methoxy)piperidin-1-yl)phenyl)-1,2,4-triazine-3,5(2H,4H)-dione]: the EC50 in experiment [1] was > 10000 nM and 4730 nM; in experiment [2], 6.35 µM and 6.07 µM.
As to `O=c1[nH]c(-c2ccc(N3CCC(OCc4c(-c5c(F)cccc5F)noc4C4CC4)C(F)(F)C3)nc2)no1` (stereo not drawn) [Example 63, 3-(6-(4-((5-cyclopropyl-3-(2,6-difluorophenyl)isoxazol-4-yl)methoxy)-3,3-difluoropiperidin-1-yl)pyridin-3-yl)-1,2,4-oxadiazol-5(4H)-one], the EC50 in experiment [1] turned out to be 2660 nM; in experiment [2] it was 0.215 µM.
For the molecule `O=c1[nH]c(-c2ccc(N3CCC(OCc4c(-c5ccccc5OC(F)(F)F)noc4C4CC4)C(F)(F)C3)nc2)no1` (stereo not drawn) [Example 64, 3-(6-(4-((5-cyclopropyl-3-(2-(trifluoromethoxy)phenyl)isoxazol-4-yl)methoxy)-3,3-difluoropiperidin-1-yl)pyridin-3-yl)-1,2,4-oxadiazol-5(4H)-one], the EC50 is 2310 nM in experiment [1] and 0.07 µM in experiment [2].
As for `O=c1[nH]nc(-c2ccc(N3[C@@H]4CC[C@H]3C[C@@H](OCc3c(-c5ccccc5OC(F)(F)F)noc3C3CC3)C4)cc2)o1` [Example 65, 5-(4-((1R,3r,5S)-3-((5-cyclopropyl-3-(2-(trifluoromethoxy)phenyl)isoxazol-4-yl)methoxy)-8-azabicyclo[3.2.1]octan-8-yl)phenyl)-1,3,4-oxadiazol-2(3H)-one], the EC50 amounted to 954 nM in experiment [1] and 0.0221 µM in experiment [2].
For `O=c1[nH]c(-c2ccc(N3[C@@H]4CC[C@H]3C[C@@H](OCc3c(-c5ccccc5OC(F)(F)F)noc3C3CC3)C4)nc2)no1` [Example 66, 3-(6-((1R,3r,5S)-3-((5-cyclopropyl-3-(2-(trifluoromethoxy)phenyl)isoxazol-4-yl)methoxy)-8-azabicyclo[3.2.1]octan-8-yl)pyridin-3-yl)-1,2,4-oxadiazol-5(4H)-one] the same measures were 247 nM and 0.003 µM.
Consider `O=c1[nH]nc(-c2ccc(N3[C@@H]4CC[C@H]3C[C@@H](OCc3c(-c5ccccc5OC(F)(F)F)noc3C3CC3)C4)cc2)c(=O)[nH]1` [Example 67, 6-(4-((1R,3r,5S)-3-((5-cyclopropyl-3-(2-(trifluoromethoxy)phenyl)isoxazol-4-yl)methoxy)-8-azabicyclo[3.2.1]octan-8-yl)phenyl)-1,2,4-triazine-3,5(2H,4H)-dione], for which the results for the EC50 in experiment [1] and in experiment [2] were 65.7 nM and 0.0127 µM, respectively.
Turning to `O=c1[nH]nc(-c2ccc(N3[C@@H]4CC[C@H]3C[C@@H](OCc3c(-c5ccccc5OC(F)(F)F)noc3C3CC3)C4)nc2)o1` [Example 68, 5-(6-((1R,3r,5S)-3-((5-cyclopropyl-3-(2-(trifluoromethoxy)phenyl)isoxazol-4-yl)methoxy)-8-azabicyclo[3.2.1]octan-8-yl)pyridin-3-yl)-1,3,4-oxadiazol-2(3H)-one], the EC50 in experiment [1] amounted to 168 nM; in experiment [2] it was 0.0264 µM.
